Laboratory results from patent EP0821955B1 (priority 1996, dated 1998).

Tests used:
m4 receptors = m4 receptors (Homo sapiens, UniProt P08173); type: cell-based; conditions: Chinese Hamster Ovary (CHO) m4 cells treated with pertussis toxin
[1] = biological target: muscarinic cholinergic receptors; assay: ^3H-oxotremorine-M binding study; conditions: inhibition of the binding of ^3H-oxotremorine-M; read-out: inhibition constant (Ki)

Chain of m4 receptors (P08173 whole entry): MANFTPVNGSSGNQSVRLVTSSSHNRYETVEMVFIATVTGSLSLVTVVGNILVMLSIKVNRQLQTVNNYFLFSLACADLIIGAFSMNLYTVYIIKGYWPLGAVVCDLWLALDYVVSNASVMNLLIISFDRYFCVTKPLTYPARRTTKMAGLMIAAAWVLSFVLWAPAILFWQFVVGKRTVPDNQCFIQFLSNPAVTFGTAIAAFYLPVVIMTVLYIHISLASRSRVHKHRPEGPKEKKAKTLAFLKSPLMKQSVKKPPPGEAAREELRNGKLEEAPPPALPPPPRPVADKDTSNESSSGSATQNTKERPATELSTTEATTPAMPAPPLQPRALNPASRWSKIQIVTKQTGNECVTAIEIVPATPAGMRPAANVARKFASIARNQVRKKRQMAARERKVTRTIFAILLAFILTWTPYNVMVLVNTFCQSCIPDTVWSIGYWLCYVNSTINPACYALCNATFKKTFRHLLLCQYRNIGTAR

## CCCCCCOc1nsnc1C1=CCCN(C)C1 [xanomeline, 3-(4-hexyloxy-1,2,5-thiadiazol-3-yl)-1,2,5,6-tetrahydro-1-methylpyridine]
m4 receptors
  formation of cAMP: efficaciously and potently stimulated the formation of cAMP
[1]
  Ki: 2 nM
